Results taken from patent US4992449A, “7-(substituted)cycloalkylamino-1 -(substituted)-6-fluoro-1,4-dihydro-4-oxo-3-quinolinecarboxylic acids” (American Cyanamid Company, priority 1990, dated 1991).
In brackets after ≈: the same amount, converted by molar mass. Read-outs that look alike come from different tables or passages of the source.

Key:
Test in all cases: In vitro antibacterial MIC, agar plate dilution
Assay type in all cases: cell-based
[1] = test system: Excherichia coli CMC 84-11; settings: 18 h, Table II, read-out: MIC
In short: (§1)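 Agar plate dilution on Mueller-Hinton agar, with about 10^4 colony forming units of each organism applied by Steers replicating device. MIC, in mcg/ml, is the lowest compound concentration preventing visible growth after 18 hours at 35° C.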

[2] = test system: Staphylococcus aureus ATCC 29213; settings: Staphylococcus aureus, ATCC29213, 18 h, read-out: MIC
In short: as §1

[3] = test system: Staphylococcus aureus VGH 84-45; settings: VGH8445, 18 h, Table II, read-out: MIC
In short: as §1

[4] = test system: Staphylococcus faecalis CMC 83-120; settings: CMC83120, Mueller-Hinton agar, 10^4 CFU, 18 hours, 35° C.
In short: as §1

[5] = test system: Pseudomonas aeruginosa LL-1244; settings: Pseudomonas aeruginosa, LL1244, 18 h, Table II, read-out: MIC
In short: as §1

[6] = test system: Klebsiella neumoniae MOR 84-24; settings: MOR8424, Mueller-Hinton agar, 10^4 CFU, 18 hours, 35° C.
In short: as §1

[7] = test system: Enterobacter cloacae K 84-10; settings: K8410, Mueller-Hinton agar, 10^4 CFU, 18 hours, 35° C.
In short: as §1

[8] = test system: Serratia marcescens CMC 83-74; settings: CMC8374, Mueller-Hinton agar, 10^4 CFU, 18 hours, 35° C.
In short: as §1

[9] = test system: Streptococcus faecalis UCI 85-19; settings: Enterococcus faecalis, UCI8519, 18 h, Table II, read-out: MIC
In short: as §1

[10] = test system: Pseudomonas aeruginosa VGH 84-4; settings: Pseudomonas aeruginosa, VGH844, 18 h, Table II, read-out: MIC
In short: as §1

[11] = test system: Staphylococcus aureus NEMC 87-59; settings: NEMC8759, 18 h, Table II
In short: as §1

[12] = test system: Staphylococcus aureus CMC 83-131; settings: CMC83131, Mueller-Hinton agar, 10^4 CFU, 18 hours, 35° C.
In short: as §1

Staphylococcus SSC 82-56 = settings: SSC8256, 18 h, Table II
In short: as §1

[13] = Table I, Mueller-Hinton agar, 10^4 CFU, 18 hours, 35° C.

| MIC [1] [µg/mL] | MIC [2, 13] [µg/mL] | MIC ([2]; Table II) [µg/mL] | MIC [3] [µg/mL] | MIC [4] [µg/mL] | MIC [5] [µg/mL] | MIC [6] [µg/mL] | MIC [7] [µg/mL] | MIC [8] [µg/mL] | MIC [9] [µg/mL] | MIC [10] [µg/mL] | MIC [11] [µg/mL] | MIC [12] [µg/mL] | MIC (Staphylococcus SSC 82-56) [µg/mL] | SMILES |
| --- | --- | --- | --- | --- | --- | --- | --- | --- | --- | --- | --- | --- | --- | --- |
| 2 (≈ 6 µM) | 4 (≈ 12 µM) | 128 (≈ 384 µM) | 64 (≈ 192 µM) | 4 (≈ 12 µM) | 32 (≈ 96 µM) | 2 (≈ 6 µM) | 1 (≈ 3 µM) | > 16 | 32 (≈ 96 µM) | 64 (≈ 192 µM) | – | – | – | CCn1cc(C(=O)O)c(=O)c2cc(F)c(N[C@@H]3CCC[C@@H]3N)cc21 (relative stereo) [Example 4, Cis-7-[(2-Aminocyclopentyl)amino]-1-ethyl-6-fluoro-1,4-dihydro-4-oxo-3-quinolinecarboxylic acid] |
| 1 (≈ 2.5 µM) | 4 (≈ 10 µM) | 4 (≈ 10 µM) | 4 (≈ 10 µM) | > 16 | 16 (≈ 40.1 µM) | 4 (≈ 10 µM) | 2 (≈ 5.01 µM) | > 16 | 64 (≈ 160 µM) | 16 (≈ 40.1 µM) | 4 (≈ 10 µM) | > 16 | 2 (≈ 5.01 µM) | N[C@H]1CCC[C@H]1Nc1cc2c(cc1F)c(=O)c(C(=O)O)cn2-c1ccc(F)cc1 (relative stereo) [Example 3] |
